Tests used:
Type in all cases: in vivo, human
[1] = system: drug naive patients with type 2 diabetes mellitus; assay: Double-blind first line therapy clinical study: hemoglobin A1c (HbA1c); details: for frequency of subjects achieving glycemic target of HbA1c<7%: following 20 weeks of double-blind therapy; for glycemic response for baseline HbA1c levels >9%: initial therapy
Method: The dosage strengths of fixed combination product evaluated included metformin 250 mg with glyburide 1.25 mg, and metformin 500 mg with glyburide 2.5 mg. Glycemic control was assessed using Hemoglobin A1c (HbA1c), the gold-standard measure of long-term glycemic control. Mean change from baseline in HbA1c following a 20 week treatment period (4 weeks stable once daily dose, 4 week titration and 12 weeks stable dose) were compared. The treatment phase continued for an additional 12 weeks to assess durability of efficacy. This study was a 34 week, multicenter, randomized, placebo-controlled, double-blind, parallel study with an optional long-term, open-label treatment phase. The primary outcome variable for efficacy was the change from baseline in HbA1c of the two combination therapies relative to placebo following 20 weeks of randomized treatment. 2. […] Therapeutic plasma glucose response will be defined as a FPG<126 mg/dL (based on current ADA guidelines for FPG). […] Patients were drug naive or had no oral antihyperglycemic therapy for the 2 months prior to screening. […] However, recruitment continued for up to 6 months to recruit up to a maximum of 150 patients per arm to provide additional safety information. The design included 3 periods as follows: Period B began the randomized, double-blind, parallel quadruple dummy treatment phase. Eligible patients were randomized to 1 of 5 study arms which included placebo, glyburide monotherapy, metformin monotherapy, and two different dose strengths of fixed combination metformin/glyburide product (Examples 1 and 2). Subjects were maintained on once daily dosing for a 4 week period so that the contribution of the individual components of the combination product can be assessed by short term glycemic parameters. Period C was the continuation of the randomized, double-blind treatment phase. Subjects were titrated for glycemic control over the first four weeks then dose was maintained for a 24 week stable dose treatment segment. Analysis for the primary outcome, the change from baseline in HbA1c of the two combination therapies (Examples 1 and 2) relative to placebo, was assessed at week 16 of Period C which was after 20 weeks of randomized, double-blind treatment. This was done at this time as there had been adequate time for stabilization of HbA1c and for safety reasons as it was anticipated that a high number of placebo treated patients may have had to discontinue randomized study medication due to insufficient glycemic control as treatment duration was extended. […] The study remained blinded and those subjects who discontinued randomized study drug due to lack of efficacy were eligible to begin the long-term, open-label treatment phase with fixed combination product. Following completion of the single-blind lead-in phase (Period A), qualifying subjects commenced therapy in the randomized, double-blind treatment phase (Period B). […] Following completion of the 4 week stable once daily dose phase (Period B) subjects continued the same randomized therapy in the 28 week titration/stable dose treatment phase (Period C). Study medication was titrated at visits Cl, C15 and C29. Medication was dosed with the first morning meal and with the evening meal. […] After the 4 week titration segment in Period C, subjects continued on a stable dose of study medication for the remainder of Period C.

[2] = system: drug naive patients with type 2 diabetes mellitus; assay: Double-blind first line therapy clinical study: post-prandial glucose (PPG) and PPG excursion; details: for 2-hour postprandial glucose excursion from a fasting baseline: placebo 40.3 mg/dL; for decrease in post-prandial glucose excursion: week 20
Method: The term “post-prandial excursion” as employed herein refers to the difference between post-prandial glucose (PPG) and fasting plasma glucose (FPG). […] The dosage strengths of fixed combination product evaluated included metformin 250 mg with glyburide 1.25 mg, and metformin 500 mg with glyburide 2.5 mg. Glycemic control was assessed using Hemoglobin A1c (HbA1c), the gold-standard measure of long-term glycemic control. Mean change from baseline in HbA1c following a 20 week treatment period (4 weeks stable once daily dose, 4 week titration and 12 weeks stable dose) were compared. The treatment phase continued for an additional 12 weeks to assess durability of efficacy. This study was a 34 week, multicenter, randomized, placebo-controlled, double-blind, parallel study with an optional long-term, open-label treatment phase. […] 3. […] Patients were drug naive or had no oral antihyperglycemic therapy for the 2 months prior to screening. […] However, recruitment continued for up to 6 months to recruit up to a maximum of 150 patients per arm to provide additional safety information. The design included 3 periods as follows: Period B began the randomized, double-blind, parallel quadruple dummy treatment phase. Eligible patients were randomized to 1 of 5 study arms which included placebo, glyburide monotherapy, metformin monotherapy, and two different dose strengths of fixed combination metformin/glyburide product (Examples 1 and 2). Subjects were maintained on once daily dosing for a 4 week period so that the contribution of the individual components of the combination product can be assessed by short term glycemic parameters. Period C was the continuation of the randomized, double-blind treatment phase. Subjects were titrated for glycemic control over the first four weeks then dose was maintained for a 24 week stable dose treatment segment. Analysis for the primary outcome, the change from baseline in HbA1c of the two combination therapies (Examples 1 and 2) relative to placebo, was assessed at week 16 of Period C which was after 20 weeks of randomized, double-blind treatment. This was done at this time as there had been adequate time for stabilization of HbA1c and for safety reasons as it was anticipated that a high number of placebo treated patients may have had to discontinue randomized study medication due to insufficient glycemic control as treatment duration was extended. […] The study remained blinded and those subjects who discontinued randomized study drug due to lack of efficacy were eligible to begin the long-term, open-label treatment phase with fixed combination product. Following completion of the single-blind lead-in phase (Period A), qualifying subjects commenced therapy in the randomized, double-blind treatment phase (Period B). […] Following completion of the 4 week stable once daily dose phase (Period B) subjects continued the same randomized therapy in the 28 week titration/stable dose treatment phase (Period C). Study medication was titrated at visits Cl, C15 and C29. Medication was dosed with the first morning meal and with the evening meal. […] After the 4 week titration segment in Period C, subjects continued on a stable dose of study medication for the remainder of Period C.

[3] = system: drug naive patients with type 2 diabetes mellitus; assay: Double-blind first line therapy clinical study: body weight and plasma lipid profile; details: as glycemic control improved
Text: This study was a 34 week, multicenter, randomized, placebo-controlled, double-blind, parallel study with an optional long-term, open-label treatment phase. […] Patients were drug naive or had no oral antihyperglycemic therapy for the 2 months prior to screening. […] However, recruitment continued for up to 6 months to recruit up to a maximum of 150 patients per arm to provide additional safety information. The design included 3 periods as follows: Period B began the randomized, double-blind, parallel quadruple dummy treatment phase. Eligible patients were randomized to 1 of 5 study arms which included placebo, glyburide monotherapy, metformin monotherapy, and two different dose strengths of fixed combination metformin/glyburide product (Examples 1 and 2). Subjects were maintained on once daily dosing for a 4 week period so that the contribution of the individual components of the combination product can be assessed by short term glycemic parameters. Period C was the continuation of the randomized, double-blind treatment phase. […] Analysis for the primary outcome, the change from baseline in HbA1c of the two combination therapies (Examples 1 and 2) relative to placebo, was assessed at week 16 of Period C which was after 20 weeks of randomized, double-blind treatment. […]

[4] = Week 20 of double-blind therapy
[5] = Week 32 of double-blind therapy

| Compound | mean HbA1c level [1, 4] | mean HbA1c level [1, 5] | frequency of subjects achieving glycemic target of HbA1c<7% [1] | glycemic response for baseline HbA1c levels >9% [1] | 2-hour postprandial glucose excursion from a fasting baseline [2] | decrease in post-prandial glucose excursion [2] | early weight gain [3] | postprandial glucose excursion lowering, comparison in words ([2]; evaluating the excursion rather than the absolute value) |
| --- | --- | --- | --- | --- | --- | --- | --- | --- |
| COc1ccc(Cl)cc1C(=O)NCCc1ccc(S(=O)(=O)NC(=O)NC2CCCCC2)cc1 [glyburide] | 6.64% | 6.78% | 60% | plateauing of glycemic response | 38.2 mg/dL | 6.8 | 2 kg |  |
| CN(C)C(=N)N=C(N)N [metformin] | 6.79% | 6.96% | 50% | plateauing of glycemic response | 29.5 mg/dL | 15.2 |  | better postprandial glucose lowering than glyburide and placebo |
